Measured values as given in patent US9023857B2, “Substituted 6-(2-aminobenzylamino)purine derivatives, their use as medicaments and preparations containing these compounds” (Univerzita Palackeho V Olomouci, priority 2009, dated 2015).
Where two headings read alike, the source gives them in different places.

Assays:
CDK1/cyclin B = CDK1/cyclin B (Homo sapiens, UniProt P06493); experiment: CDK inhibition assay, CDK1/cyclin B
[1] = system: human erythroleukaemia K562; experiment: In vitro cytotoxic activity (Calcein AM, 72 hours), K562; settings: K562, 72 h, read-out: Cytotoxicity IC50 K-562
[2] = system: human T-lymphoblastoid leukaemic cell line CEM; experiment: In vitro cytotoxic activity (Calcein AM, 72 hours), CEM; settings: read-out: Cytotoxicity IC50 CEM
[3] = system: human malignant melanoma G 361; experiment: In vitro cytotoxic activity (Calcein AM, 72 hours), G 361; settings: G-361, 72 h, read-out: Cytotoxicity IC50 G361
[4] = system: promyelocytic leukemia HL 60; experiment: In vitro cytotoxic activity (Calcein AM, 72 hours), HL 60; settings: Homo sapiens, HL-60, 72 h, read-out: Cytotoxicity IC50 HL60
[5] = system: human osteogenic sarcoma HOS; experiment: In vitro cytotoxic activity (Calcein AM, 72 hours), HOS; settings: read-out: Cytotoxicity IC50 HOS
breast carcinoma MCF7 [6] = experiment: In vitro cytotoxic activity (Calcein AM, 72 hours), MCF7; settings: Homo sapiens, MCF7, 72 h, read-out: Cytotoxicity IC50 MCF7
[7] = system: cervical carcinoma cells HELA; experiment: In vitro cytotoxic activity (Calcein AM, 72 hours), HELA; settings: Homo sapiens, read-out: Cytotoxicity IC50 HeLa
CDK2/cyclin E = CDK2/cyclin E (Homo sapiens, UniProt P24941); experiment: CDK inhibition assay, CDK2/cyclin E
[8] = system: p53-responsive reporter pRGCΔfoslacZ in human melanoma cell line Arn8; experiment: p53-dependent transcriptional activity, β-galactosidase reporter in Arn8 cells; settings: concentration inducing maximum of β-galactosidase activity (p53-responsive reporter)
CDK9/cyclin T = CDK9/cyclin T (Homo sapiens, UniProt P50750); experiment: CDK inhibition assay, CDK9/cyclin T
Sequence of CDK9/cyclin T (P50750 whole entry, species assumed): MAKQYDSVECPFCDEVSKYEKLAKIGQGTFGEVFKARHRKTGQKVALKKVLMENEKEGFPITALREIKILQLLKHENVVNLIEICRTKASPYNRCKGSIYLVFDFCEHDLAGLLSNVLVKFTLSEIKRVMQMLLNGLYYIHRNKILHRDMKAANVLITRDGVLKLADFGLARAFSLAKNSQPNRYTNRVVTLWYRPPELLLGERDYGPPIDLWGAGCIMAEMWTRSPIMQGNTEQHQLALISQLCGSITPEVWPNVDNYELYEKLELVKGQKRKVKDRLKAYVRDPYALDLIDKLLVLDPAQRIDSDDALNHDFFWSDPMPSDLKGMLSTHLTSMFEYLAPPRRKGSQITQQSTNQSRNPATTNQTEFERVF
Sequence of CDK9/cyclin T (O60563 whole entry partner, species assumed): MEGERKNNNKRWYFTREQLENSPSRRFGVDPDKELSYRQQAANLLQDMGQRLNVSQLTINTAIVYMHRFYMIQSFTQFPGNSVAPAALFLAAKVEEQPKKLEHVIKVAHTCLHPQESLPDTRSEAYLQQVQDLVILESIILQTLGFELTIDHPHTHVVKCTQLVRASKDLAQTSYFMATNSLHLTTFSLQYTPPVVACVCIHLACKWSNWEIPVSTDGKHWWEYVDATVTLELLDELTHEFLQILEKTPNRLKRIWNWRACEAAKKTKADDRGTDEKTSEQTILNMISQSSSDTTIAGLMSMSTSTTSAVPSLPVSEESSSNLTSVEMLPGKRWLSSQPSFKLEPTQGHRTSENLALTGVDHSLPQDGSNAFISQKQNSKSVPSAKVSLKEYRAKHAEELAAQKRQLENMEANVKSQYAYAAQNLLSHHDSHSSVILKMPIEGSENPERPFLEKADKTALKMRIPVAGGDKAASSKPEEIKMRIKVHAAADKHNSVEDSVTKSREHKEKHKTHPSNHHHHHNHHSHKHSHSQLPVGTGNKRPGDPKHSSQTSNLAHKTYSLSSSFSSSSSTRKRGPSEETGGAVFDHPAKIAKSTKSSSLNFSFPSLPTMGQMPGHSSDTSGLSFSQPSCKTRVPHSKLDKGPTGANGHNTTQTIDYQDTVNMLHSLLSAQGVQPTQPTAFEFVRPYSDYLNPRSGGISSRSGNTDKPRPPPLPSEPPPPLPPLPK

[9] = In vitro cytotoxic activity (Calcein AM, 72 hours), BJ; settings: human, BJ normal fibroblasts
[10] = system: human osteogenic sarcoma HOS
[11] = system: promyelocytic leukemia HL 60
[12] = system: human T-lymphoblastoid leukaemic cell line CEM
[13] = system: human malignant melanoma G 361
[14] = system: human erythroleukaemia K562
breast carcinoma MCF7 [15] = system: breast carcinoma MCF7
[16] = system: normal human fibroblasts BJ
[17] = system: cervical carcinoma cells HELA
[18] = read-out: IC50 CDK1, CDK1/cyclin B, 15 μM ATP, histone substrate
[19] = read-out: IC50 CDK2, CDK2/cyclin E, 15 μM ATP, histone substrate
[20] = read-out: IC50 CDK9, CDK9/cyclin T, 15 μM ATP, histone substrate

Sequence of CDK1/cyclin B (P06493 whole entry, species assumed): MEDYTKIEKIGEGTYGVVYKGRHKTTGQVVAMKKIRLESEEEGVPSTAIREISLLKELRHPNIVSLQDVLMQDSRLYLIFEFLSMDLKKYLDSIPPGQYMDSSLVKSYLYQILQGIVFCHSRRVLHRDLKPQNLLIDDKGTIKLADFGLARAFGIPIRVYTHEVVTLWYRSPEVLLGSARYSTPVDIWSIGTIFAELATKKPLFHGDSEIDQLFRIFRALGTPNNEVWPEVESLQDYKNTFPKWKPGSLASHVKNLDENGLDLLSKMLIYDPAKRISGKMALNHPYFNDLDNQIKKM
Sequence of CDK1/cyclin B (P14635 whole entry partner, species assumed): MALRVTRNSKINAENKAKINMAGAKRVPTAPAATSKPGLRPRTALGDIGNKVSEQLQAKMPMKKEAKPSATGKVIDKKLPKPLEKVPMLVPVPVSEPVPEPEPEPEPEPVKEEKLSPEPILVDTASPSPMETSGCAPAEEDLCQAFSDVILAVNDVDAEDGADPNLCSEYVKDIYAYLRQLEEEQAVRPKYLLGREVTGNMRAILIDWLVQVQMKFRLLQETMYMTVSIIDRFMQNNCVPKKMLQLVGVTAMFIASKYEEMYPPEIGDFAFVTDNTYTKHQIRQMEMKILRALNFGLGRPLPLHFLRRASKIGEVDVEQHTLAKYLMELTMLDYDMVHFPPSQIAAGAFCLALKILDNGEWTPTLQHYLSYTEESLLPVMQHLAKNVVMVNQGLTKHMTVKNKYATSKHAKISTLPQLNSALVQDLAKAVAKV

Row | IC50 (CDK1/cyclin B) [µM] | IC50 (CDK2/cyclin E) [µM] | IC50 (CDK9/cyclin T) [µM] | Compound | IC50 [1] [µM] | IC50 [2] [µM] | IC50 [3] [µM] | IC50 [4] [µM] | IC50 [5] [µM] | IC50 (breast carcinoma MCF7 [6]) [µM] | IC50 [7] [µM] | Max. β-Gal. Activtity Conc. [8] [µM] | IC50 at 72 h [9] [µM] | other results
1 | 0.6 | 0.3 | 0.05 | Nc1ccccc1CNc1nc(NC2CCC(N)CC2)nc2c1ncn2C1CCCCC1 (stereo not drawn) [Compound 195] | 38 | 11 | 14 | 24 | 22 | 12 | 13 | 22 | > 167 | 
2 | 0.8 | 0.5 | 0.05 | Nc1ccccc1CNc1nc(NC2CCC(N)CC2)nc2c1ncn2Cc1ccccc1 (stereo not drawn) [Compound 231] | 37 | 12 | 15 | 32 | 23 | 15 | 16 | 18 | > 167 | 
3 | 0.7 | 0.4 | 0.01 | Cn1cnc2c(NCc3ccccc3N)nc(NC3CCC(N)CC3)nc21 (stereo not drawn) [Compound 2] | 36 | 9 | 14 | 22 | 20 | 10 | 12 | 37 | > 167 | 
4 | 0.8 | 0.6 | 0.07 | CCC(CO)Nc1nc(NCc2cc(Cl)ccc2N)c2ncn(Cc3ccccc3)c2n1 (stereo not drawn) [Compound 247] | 41 | 15 | 21 | 34 | 22 | 14 | 19 | 20 | > 167 | 
5 | 0.2 | 0.15 | 0.003 | CC(C)n1cnc2c(NCc3ccccc3N)nc(N[C@H]3CC[C@H](O)CC3)nc21 [Compound 103] | 29.8 | 14 | 33 | 36 | 63 | 10.1 | 18 | 14 | > 167 | 
6 | 0.7 | 0.4 | 0.03 | CCC(CO)Nc1nc(NCc2ccccc2N)c2ncn(Cc3ccccc3)c2n1 (stereo not drawn) [Compound 234] | 25 | 16 | 18 | 33 | 17 | 11 | 18 | 24 | > 167 | 

Continued, compound first:

Row | Compound | IC50 (CDK1/cyclin B) [µM] | IC50 (CDK2/cyclin E) [µM] | IC50 (CDK9/cyclin T) [µM] | IC50 [1] [µM] | IC50 [2] [µM] | IC50 [3] [µM] | IC50 [4] [µM] | IC50 [5] [µM] | IC50 (breast carcinoma MCF7 [6]) [µM] | IC50 [7] [µM] | Max. β-Gal. Activtity Conc. [8] [µM] | IC50 at 72 h [9] [µM] | other results
7 | CC(C)n1cnc2c(NCc3ccccc3N)nc(NC3CCCCC3N)nc21 (stereo not drawn) [Compound 101] |  |  |  |  |  |  |  |  |  |  | 22 |  | IC50 (CDK1/cyclin B; [18]): 0.6 µM; IC50 [10]: 25 µM; IC50 [11]: 24 µM; IC50 [12]: 7 µM; IC50 [13]: 14 µM; IC50 [14]: 27 µM; IC50 (breast carcinoma MCF7 [15]): 15.3 µM; IC50 (CDK2/cyclin E; [19]): 0.4 µM; IC50 (CDK9/cyclin T; [20]): 0.02 µM; IC50 [16]: > 167 µM; IC50 [17]: 15 µM
8 | CC(O)CNc1nc(NCc2ccccc2N)c2ncn(C(C)C)c2n1 (stereo not drawn) [Compound 104, 1-({6-[(2-aminobenzyl)amino]-9-isopropyl-9H-purin-2-yl}amino)propan-2-ol] | 0.09 | 0.03 | 0.006 | 26 | 17 | 19 | 29 | 31 | 15.4 | 15 | 12 | > 167 | 
9 | CC(C)C(CO)Nc1nc(NCc2ccccc2)c2ncn(C(C)C)c2n1 (stereo not drawn) [Compound A2161] |  |  |  |  |  |  |  |  |  |  |  |  | IC50 [10]: 22 µM; IC50 [11]: 18 µM; IC50 [12]: 4.3 µM; IC50 [13]: 11.5 µM; IC50 [14]: 15.4 µM; IC50 (breast carcinoma MCF7 [15]): 5.9 µM; IC50 (CDK9/cyclin T; [20]): 0.5 µM; IC50 [16]: > 167 µM; IC50 [17]: 6.5 µM
10 | Cn1cnc2c(NCc3ccccc3N)nc(NC3CCCCC3N)nc21 (stereo not drawn) [Compound 1] | 1.1 | 0.8 | 0.05 | 46 | 15 | 22 | 31 | 22 | 13 | 18 | 34 | > 167 | 
11 | CC(C)C(CO)Nc1nc(NCc2ccccc2N)c2ncn(C)c2n1 (stereo not drawn) [Compound 7] | 0.04 | 0.01 | 0.001 | 5 | 0.9 | 1.2 | 2.4 | 0.8 | 1.5 | 1 | 25 | > 167 | 
12 | CCC(CO)Nc1nc(NCc2ccccc2N)c2ncn(CC)c2n1 (stereo not drawn) [Compound 62] | 0.07 | 0.01 | 0.0007 | 5.4 | 2.4 | 2.5 | 6.7 | 3.2 | 1.8 | 1.6 | 7 | > 167 | 
13 | CCC(CO)Nc1nc(NCc2cc(Cl)ccc2N)c2ncn(C3CCCCC3)c2n1 (stereo not drawn) [Compound 209] | 0.5 | 0.3 | 0.04 | 25 | 12 | 14 | 31 | 18 | 11 | 14 | 20 | > 167 | 
14 | Cn1cnc2c(NCc3ccccc3)nc(NC3CCC(N)CC3)nc21 (stereo not drawn) [Compound A1141] |  |  |  |  |  |  |  |  |  |  |  |  | IC50 (CDK1/cyclin B; [18]): 3.1 µM; IC50 [10]: 86 µM; IC50 [11]: 75 µM; IC50 [12]: 43 µM; IC50 [13]: 74 µM; IC50 [14]: 91 µM; IC50 (breast carcinoma MCF7 [15]): 55 µM; IC50 (CDK2/cyclin E; [19]): 3.4 µM; IC50 (CDK9/cyclin T; [20]): 3.3 µM; IC50 [16]: > 167 µM; IC50 [17]: 48 µM
15 | CC(C)n1cnc2c(NCc3cc(N)ccc3N)nc(NC3CCC(O)CC3)nc21 (stereo not drawn) [Compound 161] |  |  |  |  |  |  |  |  |  |  | 20 |  | IC50 (CDK1/cyclin B; [18]): 0.9 µM; IC50 [10]: 26 µM; IC50 [11]: 26 µM; IC50 [12]: 9 µM; IC50 [13]: 14 µM; IC50 [14]: 18 µM; IC50 (breast carcinoma MCF7 [15]): 7 µM; IC50 (CDK2/cyclin E; [19]): 0.6 µM; IC50 (CDK9/cyclin T; [20]): 0.08 µM; IC50 [16]: > 167 µM; IC50 [17]: 12 µM
16 | CCn1cnc2c(NCc3ccccc3N)nc(NC(CO)C(C)C)nc21 (stereo not drawn) [Compound 64] | 0.03 | 0.01 | 0.0009 | 4.5 | 0.7 | 1 | 2.1 | 0.9 | 1.3 | 1.2 | 6 | > 167 | 
17 | CC(C)n1cnc2c(NCc3ccccc3N)nc(NCC(C)(C)O)nc21 [Compound 108] | 0.02 | 0.008 | 0.0004 | 3 | 0.5 | 1.9 | 2.2 | 1 | 1.2 | 1 | 3 | > 167 | 
18 | CCC(CO)Nc1nc(NCc2cc(Cl)ccc2N)c2ncn(C(C)C)c2n1 (stereo not drawn) [Compound 118] | 0.08 | 0.01 | 0.002 | 8.4 | 3.2 | 6 | 5.4 | 7.6 | 1.8 | 1.6 | 18 | > 167 | 
19 | CCCn1cnc2c(NCc3ccccc3N)nc(NC(CC)CO)nc21 (stereo not drawn) [Compound 187] | 0.2 | 0.1 | 0.0007 | 16 | 7.6 | 9 | 8.3 | 12 | 4.3 | 4.5 | 3 | > 167 | 
20 | CC(O)CNc1nc(NCc2ccccc2)c2ncn(C(C)C)c2n1 (stereo not drawn) [Compound A216] |  |  |  |  |  |  |  |  |  |  |  |  | IC50 [10]: 58 µM; IC50 [11]: 59 µM; IC50 [12]: 27 µM; IC50 [13]: 44 µM; IC50 [14]: 80 µM; IC50 (breast carcinoma MCF7 [15]): 30.4 µM; IC50 (CDK2/cyclin E; [19]): 1.5 µM; IC50 (CDK9/cyclin T; [20]): 1.3 µM; IC50 [16]: > 167 µM; IC50 [17]: 36 µM
